Results from publication PMC10484737 (Nucleic Acids Research, 2023).
“Also recorded” adds a separate entry of the source.

B1: TsaN^1−392 (Pandoravirus salinus) (protein)
chain: MSSVRAQPHMSGRAPDAANVAGAVRTSAGMCATGANFERRVTILGIESSCDDTGVAVLQVGGNAPPAVLAHEAVTSWAHHARQADINKEHAAAVHRETVAPLVDQAMAASGVGWDAIDAIAVTVGPGMMGGLMAGVDEAVRLAALHGKPLVPVNHLEGHALVAGVCTRQLCFPFLVLLASGGSCQLVLARDLGDYRRLGQTLDCAPGQALDAVARALALDLGASGSGGRAIELAAKNARTDAGDDRIGDDAWPDGCDFAFGGLRDRAVALARKSLAGEADDIAKRVQALIVDQLVSRTVRAIEWCRAHVADPTALVVAGGVAANTCLRESLQRAIGSVDLVCPPPRLCTDNGVMIAHAGALHYLHRPDAFACGPTHVCLQHEWHLGVDVSEC
B2: TsaN (Pandoravirus salinus) (protein)
chain: MSSVRAQPHMSGRAPDAANVAGAVRTSAGMCATGANFERRVTILGIESSCDDTGVAVLQVGGNAPPAVLAHEAVTSWAHHARQADINKEHAAAVHRETVAPLVDQAMAASGVGWDAIDAIAVTVGPGMMGGLMAGVDEAVRLAALHGKPLVPVNHLEGHALVAGVCTRQLCFPFLVLLASGGSCQLVLARDLGDYRRLGQTLDCAPGQALDAVARALALDLGASGSGGRAIELAAKNARTDAGDDRIGDDAWPDGCDFAFGGLRDRAVALARKSLAGEADDIAKRVQALIVDQLVSRTVRAIEWCRAHVADPTALVVAGGVAANTCLRESLQRAIGSVDLVCPPPRLCTDNGVMIAHAGALHYLHRPDAFACGPTHVCLQHEWHLGVDVSECVRADRPVPQVAAIHASIKSDVADAARALCRGELVAFPTETVYGLGADAASDEAVQRIFDAKGRPSNNPIIVHVASKEQFYRIAGHDLDAALRARCERLMDEFWPGPLTLLVPNGGEKLSPLVTCGLPVVGLRMPDNATAIDLIRRAGVGVAAPSANKSGRPSPTCAQHVAADLVGERIWGVLDGRGSTYGIESTVLDVATVSIYREGPVTADDISRALDGAPVDVSSGRKELAAGEAPKAPGMLYRHYAPDTDVTVVHGTLGFLNATVRSMRDRGLRVGVIAPYGDAIDARASKVWYCMRHGDATDVMGSLGANLYAALRGLDLPDVDVILVRAVPDSRTGGAVMERLAKASQGSRLIEPAMTARLERMIGADVVQRIARGRVLVCGLGGAGAPLVDMAVRAGVGRLGLLDPDRVDLSNLVRMPQATLADVDRRKIDVVAERARAVNPDADLTLLAHRITPDFDMGALRAHEYDIIVDAVDDPAGKVALIKYAVENKLPLISCMGAGNKTDVTQVHRVVDIADADVCLLALETKRLLAKEGITRGVKCVVTQGDHWVFAPQDGHDVIGNWPPCYFMAAAVLLDHVLRVLAGPESVEDHVRGRAVGVSTKSGIVAIP

Legend:
[1] = target: T1, TsaN (Pandoravirus salinus, UniProt A0A291ATS8); assay: Effect of divalent metal ions on biosynthesis of t^6ADP and t^6ATP; type: biochemical, P. salinus; conditions: pre-bound metals removed by dialysis with EDTA
T1 sequence (A0A291ATS8 1-1008): B2 chain

[2] = target: T2, TsaN^1−392 (TsaD domain of TsaN) (Pandoravirus salinus, UniProt A0A291ATS8); assay: ITC, nucleotide binding to the TsaD domain; parameters: species or system P. salinus; conditions: for ΔG / ΔH: 30 μM TsaN^1−392 titrated with 360 μM ligand
T2 sequence (A0A291ATS8 1-392): B1 chain

[3] = target: TsaN^749-1008 (TcdA domain of P. salinus TsaN) (Pandoravirus salinus); assay: SEC-MALS
[4] = target: T3, TsaN^749−1008 (TcdA domain of TsaN) (Pandoravirus salinus, UniProt A0A291ATS8); assay: ITC, ligand binding to the TcdA domain; parameters: species or system P. salinus
T3 sequence (A0A291ATS8 749-1008): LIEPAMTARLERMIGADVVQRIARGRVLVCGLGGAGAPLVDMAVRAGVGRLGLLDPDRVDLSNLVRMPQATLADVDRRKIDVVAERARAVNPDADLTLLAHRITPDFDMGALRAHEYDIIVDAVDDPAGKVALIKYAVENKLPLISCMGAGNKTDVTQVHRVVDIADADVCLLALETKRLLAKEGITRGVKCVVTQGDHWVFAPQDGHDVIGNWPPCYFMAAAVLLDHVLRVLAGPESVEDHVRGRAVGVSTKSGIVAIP

[5] = target: TsaN^(1−392)H155A/H159A; assay: ITC, ATP binding to the TsaD domain variant; parameters: species or system P. salinus; conditions: 30 μM TsaN^(1−392)H155A/H159A titrated with 360 μM ligand
[6] = system: TsaN^H155A/H159A; assay: NADH-coupled ATPase assay; type: biochemical, P. salinus; conditions: 5 μM TsaN^H155A/H159A
[7] = system: TsaN^749−1008; assay: Enzymatic assay of ct^6A, LC–MS; type: biochemical, P. salinus; conditions: for ct^6A formation from synthetic t^6A in the presence of the nucleotide (ct^6A/t^6A): TsaN^749−1008 and synthetic t^6A plus ATP, AMPCPP, AMP or AMP + PPi
[8] = target: Pandoravirus salinus TsaN (TsaD-TsaC-SUA5-TcdA modular protein), full length (Pandoravirus salinus); assay: SEC-MALS
[9] = target: Pandoravirus salinus TsaN (TsaD-TsaC-SUA5-TcdA modular protein), full length (Pandoravirus salinus); assay: SEC
[10] = substrate: Nc1ncnc2c1ncn2[C@@H]1O[C@H](COP(=O)(O)OP(=O)(O)OP(=O)(O)O)[C@@H](O)[C@H]1O; assay: NADH-coupled ATPase assay; type: biochemical, P. salinus; conditions: 25°C, pH 7.5
[11] = 30 μM TsaN^749−1008 titrated with 360 μM ligand
[12] = 30 μM TsaN^749−1008, 360 μM ligand, in the presence of 100 μM synthetic t^6A
[13] = other: 5 μM TsaN^1−392, varying ATP

Molecule	ΔG [2]	ΔH [2]	K D [4, 11]	N (sites) [4, 11]	ΔG [4, 11]	ΔH [4, 11]	also measured
[Cl][Mn][Cl] [MnCl2]	–	–	–	–	–	–	effect of divalent metal ion on catalytic activity of TsaN (t^6A/A) [1]: stimulated the catalytic activity
Nc1ncnc2c1ncn2[C@@H]1O[C@H](CO[P@](=O)(O)O[P@](=O)(O)O[P@@](=O)(O)S)[C@@H](O)[C@H]1O [ATPγS]	-6.77 kcal/mol	-6.02 ± 2.38 kcal/mol	–	–	–	–	Kd [2]: 10.9 ± 8.91 µM
TsaN^749-1008 (TcdA domain of P. salinus TsaN) (domain or fragment)	–	–	–	–	–	–	stoichiometry N [3]: 2
Nc1ncnc2c1ncn2[C@@H]1O[C@H](COP(=O)(O)OP(=O)(O)O)[C@@H](O)[C@H]1O [ADP]	-7.05 kcal/mol	-2.74 ± 0.62 kcal/mol	not able to determine the binding; also recorded: No binding	No binding	No binding	No binding	ITC binding to AMP-bound TsaN^1-392 ([2]; 30 μM AMP-bound TsaN^1-392 titrated with 360 μM ADP, data not shown): no binding curves
Nc1ncnc2c1ncn2[C@@H]1O[C@H](COP(=O)(O)OP(=O)(O)OP(=O)(O)O)[C@@H](O)[C@H]1O [ATP]	–	–	not able to determine the binding; also recorded: No binding	No binding	No binding	No binding	K D [5]: does not bind; also recorded: No binding; production of ADP in the ATPase assay [6]: not detected; ct^6A formation from synthetic t^6A in the presence of the nucleotide (ct^6A/t^6A) [7]: efficient conversion of t^6A to ct^6A; ATP hydrolysis ([7]; in the absence of synthetic t^6A, data not shown): not hydrolyzed
Nc1ncnc2c1ncn2[C@@H]1O[C@H](COP(=O)(O)O)[C@@H](O)[C@H]1O [AMP]	-6.49 kcal/mol	-4.74 ± 1.46 kcal/mol	not able to determine the binding; also recorded: No binding	No binding	No binding	No binding	ct^6A formation from synthetic t^6A in the presence of the nucleotide (ct^6A/t^6A) [7]: not observed the formation of ct^6A
Nc1ncnc2c1ncn2[C@@H]1O[C@H](COP(=O)(O)CP(=O)(O)OP(=O)(O)O)[C@@H](O)[C@H]1O [AMPCPP]	–	–	–	–	–	–	ct^6A formation from synthetic t^6A in the presence of the nucleotide (ct^6A/t^6A) [7]: not observed the formation of ct^6A; K D [4, 12]: not observed a binding signal; also recorded: No binding; N (sites) [4, 12]: No binding; ΔG [4, 12]: No binding; ΔH [4, 12]: No binding
Pandoravirus salinus TsaN (TsaD-TsaC-SUA5-TcdA modular protein), full length (enzyme)	–	–	–	–	–	–	stoichiometry N [8]: 2; stoichiometry N [9]: 2
Nc1ncnc2c1ncn2[C@@H]1O[C@H](CO)[C@@H](O)[C@H]1O [A, adenosine]	No binding	No binding	not able to determine the binding; also recorded: No binding	No binding	No binding	No binding	–
B1	–	–	–	–	–	–	Km [10, 13]: 40 µM; Vmax [10, 13]: 0.015 µM/s
B2	–	–	–	–	–	–	Km ([10]; other: 5 μM TsaN, varying ATP): 40 µM; Vmax ([10]; other: 5 μM TsaN, varying ATP): 0.015 µM/s
